Measurements as given in publication PMC8534003, “The Chemokine-Based Peptide, CXCL9(74-103), Inhibits Angiogenesis by Blocking Heparan Sulfate Proteoglycan-Mediated Signaling of Multiple Endothelial Growth Factors” (Cancers, 2021).

How the values were obtained:
[1] = tested on: FGF-2-induced angiogenesis, C57BL/6 mice; experiment: In vivo angiogenesis Matrigel plug assay; parameters: species or system mouse; conditions: data not shown
Procedure: Six-to-eight-week-old female C57BL/6 mice were anesthetized with a mixture of 2.5 mg/mL xylazine (V.M.D, Inovet, Arendonk, Belgium) and 37.5 mg/mL ketamine (Dechra, Northwich, UK) in PBS by i.p. injection. A vertical dorsal incision was made and an ALZET osmotic pump (model 1007D, DURECT Corporation, Cupertine, CA, USA) filled with 400 µg/100 µL CXCL9(74-103) or 100 µL PBS was subcutaneously (s.c.) implanted. The incision was closed with a surgical suture. Growth factor-reduced Matrigel (Corning Matrigel Growth Factor (GFR) Basement Membrane Matrix, Phenol Red-Free, LDEV-Free; Corning Life Sciences, Amsterdam, The Netherlands) was s.c. injected in the dorsal flank forming a firm plug (600 µL/plug). The Matrigel was either injected as such (control plugs) or supplemented with 300 µg CXCL9(74-103) and/or 180 ng FGF-2. Seven days later, the mice were sacrificed. Thirty minutes before sacrifice, the mice were i.v. injected with 200 µL (25 mg/kg) FITC-labeled 2000 kDa dextran (Sigma-Aldrich) to quantify vessel formation in the Matrigel plugs. Blood was collected through cardiac puncture into heparinized tubes containing 20 µL heparin (5.000 IE/mL, Leo Pharma, Ballerup, Denmark). The blood was centrifuged at 200 g and 4 °C for 10 min, whereafter the supernatant was centrifuged at 3000 g and 4 °C for 10 min. The collected plasma was stored away from light at 4 °C until analysis. The Matrigel plugs were removed and enzymatically and mechanically digested in 1.2 mL dispase (Corning Life Sciences) using an incubation at 37 °C for 1.5 h and the gentleMACS™ Dissociator (Miltenyi Biotec, Bergisch Gladbach, Germany). The digested Matrigel plugs were filtered through a 70 µm cell strainer, washed with 1.5 mL FACS buffer [2% (v/v) FCS + 2 mM EDTA in PBS] and centrifuged at 300 g and 4 °C for 7 min. The supernatant (SN) was centrifuged again at 300 g and 4 °C for 7 min and the SN was retained away from light at 4 °C until analysis. The pellet was resuspended in 1 mL FACS buffer, the cells were counted and used for flow cytometry. The antibodies used to identify endothelial cells were anti-mouse CD45-APC (clone 30-F11, eBioscience, Thermo Fisher Scientific), anti-mouse CD146-PE (clone ME-9F1) and anti-mouse Pan-endothelial Cell Antigen-BV711 (clone MECA-32) antibodies (both BD Biosciences). Mice experiments were approved by the Ethical Committee of KU Leuven (project number P199/2018).

[2] = tested on: phospho-ERK1/2; experiment: Signal transduction assay, VEGF165-induced ERK phosphorylation in MECs (ELISA); format: cell-based, mouse; conditions: murine VEGF165 5 ng/mL 5 min, peptide 1 µM, n ≥ 3
Procedure: HMVECs and MECs were seeded in 6-well plates at 1.25 × 10^5 cells/well in their respective culture medium. Once the cell density reached 70–80% confluency, the cells were starved in serum-free medium overnight. Fifteen minutes prior to stimulation, cells were incubated with various concentrations of CXCL9(74-103) or CXCL9(86-103) in 0.5% (v/v) BSA in MCDB131 or DMEM medium (assay medium for HMVECs and MECs, respectively) at 37 °C. HMVECs and MECs were stimulated with assay medium alone or supplemented with 10 ng/mL EGF or 5 ng/mL murine VEGF165 at 37 °C for 15 or 5 min, respectively. Then, the cells were placed on ice, washed with ice-cold PBS and 90 µL of lysis buffer [1% (v/v) protease inhibitor cocktail, phosphatase inhibitor cocktail 2 and 3 (all Sigma-Aldrich) in 1 mM ethylenediaminetetraacetic acid (EDTA), 0.5% (v/v) Triton™ X-100, 5 mM NaF, 6 M urea in PBS] was added per well. […] The amount of phospho-ERK1/2 in the cell lysates was determined using an ERK1 (Thr202/Tyr204)/ERK2 (Thr185/Tyr187) ELISA duoset (R&D Systems) according to the manufacturer’s instructions. The amount of phosphorylated ERK was normalized to the total protein content in the samples measured by the Pierce™ bicinchoninic acid (BCA) protein assay kit (Thermo Fisher Scientific).

[3] = tested on: HMVEC spheroids; experiment: Spheroid sprouting assay; format: cell-based, human; conditions: FGF-2 10 ng/mL, peptide 3 µM, 16 hours; n = 5 experiments
Procedure: A 1:5 mixture of endothelial cells (4 × 10^4 cells/mL) and methylcellulose (Sigma-Aldrich, Saint Louis, MO, USA; 12 mg/mL in EBM™-2 basal medium) in EBM™-2 cell culture medium was prepared. Drops of 1 × 10^3 HMVECs were plated on a petri dish and allowed to form single spheroids in hanging droplets at 37 °C, 5% CO2 for 24 h. Spheroids were collected, sedimented by centrifugation and resuspended in a mixture of 24 mg/mL methylcellulose in basal EBM™-2, 1 mg/mL collagen type I (BD Biosciences, San Jose, CA, USA), 2.5 mg/mL NaHCO3 and 10 mM NaOH. The suspension was plated in a 96-well plate and the collagen was allowed to polymerize at 37 °C, 5% CO2 for 30 min. Spheroids were left untreated or stimulated with 0.3 or 3 µM of CXCL9(74-103) or 3 µM of CXCL9(86-103) for 15 min prior to addition of 10 ng/mL FGF-2 or 10 ng/mL EGF in EBM™-2 + 3% (v/v) FCS. In some experiments, HMVECs were pretreated with heparinase II (vide infra). After 16 hours, spheroid sprouting was assessed with an inverted Axiovert 200M microscope (Zeiss, Germany) through a 10× objective. The average number of sprouts was calculated and the average sprout length per spheroid was measured using Fiji software.
Sprouting experiments examining the dependency on HS binding for the inhibitory action of CXCL9(74-103) were performed as described above (vide supra). […]

**Q.** KKVLKVRKSQRSRQKKTT [CXCL9(86-103)] was tested. Which “FGF-2-induced angiogenesis in the Matrigel plug assay” value [1] did it give?
**A.** no anti-angiogenic activity

**Q.** What about the “VEGF165-induced ERK phosphorylation” value [2] of the same sequence?
**A.** did not result in a reduction of VEGF165-induced ERK phosphorylation

**Q.** And the “sprout outgrowth induced by FGF-2” value [3]?
**A.** had no effect on sprout outgrowth induced by FGF-2
